Measurements taken from the CheMixHub ionic liquid set.
± gives the uncertainty stated by the source.

Experiment: xn = mol fraction of the nth substance listed

CCCC[n+]1ccn(C)c1.O=S(=O)([N-]S(=O)(=O)C(F)(F)F)C(F)(F)F + CCCCCCO
Conditions | viscosity [mPa·s]
298 K, 100 kPa, x1 = 1 | 49.7 ± 1.3

CCCC[n+]1ccccc1.O=S(=O)([N-]S(=O)(=O)C(F)(F)F)C(F)(F)F + CCCC[n+]1ccccc1.F[B-](F)(F)F
101 kPa
Conditions | viscosity [mPa·s]
303.15 K, x1 = 0.2162 | 91.2 ± 2.7
303.15 K, x1 = 0.7643 | 58.2 ± 1.3
313.15 K, x1 = 0.4327 | 48.4 ± 1.1
313.15 K, x1 = 0.5429 | 46.2 ± 1.1
313.15 K, x1 = 0.6523 | 42.5 ± 1
313.15 K, x1 = 0.8822 | 36.3 ± 0.9
323.15 K, x1 = 1 | 24.2 ± 0.6
333.15 K, x1 = 0.6523 | 21.8 ± 0.5
343.15 K, x1 = 0.1119 | 21.9 ± 0.5
343.15 K, x1 = 0.2162 | 19.9 ± 0.5
343.15 K, x1 = 0.8822 | 14.5 ± 0.3
353.15 K, x1 = 0.1119 | 16.5 ± 0.4
353.15 K, x1 = 0.4327 | 13.7 ± 0.3
353.15 K, x1 = 0.5429 | 13.2 ± 0.3
353.15 K, x1 = 1 | 10.9 ± 0.3

CCCC[n+]1ccn(C)c1.F[P-](F)(F)(F)(F)F + O
Conditions | electrical conductivity [S/m] | viscosity [mPa·s]
293.15 K, 100 kPa, x1 = 0.0001838 | – | 1.011 ± 0.041
293.15 K, 100 kPa, x1 = 0.0005385 | – | 1.025 ± 0.042
293.15 K, 100 kPa, x1 = 0.0008966 | – | 1.038 ± 0.043
293.15 K, 100 kPa, x1 = 0.001262 | – | 1.041 ± 0.043
298.15 K, 100 kPa, x1 = 0.0001838 | – | 0.905 ± 0.037
298.15 K, 100 kPa, x1 = 0.0005385 | – | 0.916 ± 0.038
298.15 K, 100 kPa, x1 = 0.0008966 | – | 0.922 ± 0.038
298.15 K, 100 kPa, x1 = 0.001262 | – | 0.932 ± 0.038
298.15 K, 101 kPa, x1 = 0.00129 | – | 0.929 ± 0.034
298.15 K, 101 kPa, x2 = 0 | 0.157 ± 0.019 | 260 ± 180
298.15 K, 101 kPa, x2 = 0.0518 | 0.197 ± 0.024 | 200 ± 110
298.15 K, 101 kPa, x2 = 0.0985 | 0.235 ± 0.028 | 154 ± 71
298.15 K, 101 kPa, x2 = 0.1409 | 0.281 ± 0.034 | 127 ± 49
298.15 K, 101 kPa, x2 = 0.1794 | 0.334 ± 0.04 | 109 ± 35
298.15 K, 101 kPa, x2 = 0.2146 | 0.383 ± 0.046 | 92 ± 24
303.15 K, 100 kPa, x1 = 0.0001838 | – | 0.821 ± 0.034
303.15 K, 100 kPa, x1 = 0.0005385 | – | 0.826 ± 0.034
303.15 K, 100 kPa, x1 = 0.001262 | – | 0.843 ± 0.035
308.15 K, 100 kPa, x1 = 0.0001838 | – | 0.742 ± 0.03
308.15 K, 100 kPa, x1 = 0.0005385 | – | 0.744 ± 0.031
308.15 K, 100 kPa, x1 = 0.0008966 | – | 0.75 ± 0.031
308.15 K, 100 kPa, x1 = 0.001262 | – | 0.761 ± 0.031
313.15 K, 100 kPa, x1 = 0.0001838 | – | 0.661 ± 0.027
313.15 K, 100 kPa, x1 = 0.0005385 | – | 0.674 ± 0.028
313.15 K, 100 kPa, x1 = 0.0008966 | – | 0.677 ± 0.028
313.15 K, 100 kPa, x1 = 0.001262 | – | 0.683 ± 0.028

101 kPa, frequency 6e-05 MHz
Conditions | electrical conductivity [S/m]
293.2 K, x2 = 0.1 | 0.199 ± 0.002
298.2 K, x2 = 0.05 | 0.231 ± 0.002
298.2 K, x2 = 0.15 | 0.361 ± 0.004
308.2 K, x2 = 0.1 | 0.401 ± 0.004
308.2 K, x2 = 0.2 | 0.546 ± 0.006
313.2 K, x2 = 0.15 | 0.561 ± 0.006
318.2 K, x2 = 0.05 | 0.491 ± 0.005
318.2 K, x2 = 0.2 | 0.775 ± 0.008
323.2 K, x2 = 0.1 | 0.678 ± 0.007
333.2 K, x2 = 0.2 | 1.06 ± 0.011
343.2 K, x2 = 0.15 | 1.06 ± 0.011
353.2 K, x2 = 0.15 | 1.405 ± 0.014
353.2 K, x2 = 0.2 | 1.621 ± 0.016

CN1CCCC1=O + CCCC[n+]1ccn(C)c1.N#C[S-]
101 kPa, x2 = 0
Conditions | viscosity [mPa·s]
288.15 K | 2.133 ± 0.023
298.15 K | 1.791 ± 0.02
308.15 K | 1.549 ± 0.018
318.15 K | 1.285 ± 0.017
